Literature values, collected in US7700612B2, “Di-ester prodrugs of camptothecin, process for their preparation and their therapeutical applications” (Abraxis BioScience, LLC, priority 2003, dated 2010).

How the values were obtained:
[1] = animal models; J. Med. Chem. 23, 554 (1980)
mouse leukemia L 1210 = settings: initial test, Wall et al.

Structure (SMILES) | solubility in water | potency relative to the parent camptothecin [1] | activity against mouse leukemia L 1210 system (mouse leukemia L 1210)
CC[C@@](O)(C(=O)[O-])c1cc2n(c(=O)c1CO)Cc1cc3ccccc3nc1-2.[Na+] [CPT sodium carboxylate] | water-soluble | 10-20% | 
CC[C@@]1(O)C(=O)OCc2c1cc1n(c2=O)Cc2cc3ccccc3nc2-1 [Camptothecin] | insoluble |  | active
